In series [1] the test system is SW48 (MSI-H) colorectal cancer tumor cells. In words: In vivo efficacy, SW48 xenograft in nude mice. Particulars: QD, oral; for TGI: 21 days; for Tumor Volume D 1: day 1; for Tumor volume D 21: day 21. More on the design: species or system BALB/c nude mice. On the procedure: In vivo efficacy experiment in BALB/C nude mice. Details are as follows:
SW48 (MSI-H) colorectal cancer tumor cells were cultured (in an L15 medium with 10% fetal bovine serum), and inoculated into 6-8 week old female BALB/c nude mice (with body weight of about 20 g). All the mice were inoculated subcutaneously. The mice were raised in an SPF-grade experimental environment, and all the mice were free to take commercially certified standard diets. When the tumors grew to an average volume of about 160 mm^3 in mice, the test compound was orally administered daily. […] The tumor volume was measured with a two-dimensional caliper three times a week, and the animals were weighed every day. […] The volume calculation formula is: V=1/2a*b^2, where a represents the long diameter of the tumor and b represents the short diameter of the tumor.

The conditions of series [2]: female, CD1, mouse, in vivo.
Procedure: (§1) Mouse Pharmacokinetic Evaluation Experiment
(§2) CD1 female mice were used as test animals to be administered orally/intravenously (with oral dosage of 10 mg/kg or intravenous dosage of 2 mg/kg).
(§3) Experimental scheme: The oral administration group comprised 3 mice per group (Solvent: 10% Hβ-CD-pH7.4), and the intravenous group comprised 3 mice per group. […] The blood concentration in the plasma of mice was determined using the LC/MS/MS method after the oral or intravenous administration, respectively, and the collected data were calculated using the AB Sciex QTRAP 6500 software.
Series [3] is described as follows: in vivo. As to conditions: female, CD1, mouse.
Procedure: as §1, §2, §3
In series [4] the test system is SW48 colorectal cancer cells. Description: 2D antiproliferation on MSI-H SW48 cells, CTG, 5 days. The format is cell-based. As to conditions: Homo sapiens, 120 h; SW48 MSI-H, 5 days. In outline:
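MSI-H SW48 colorectal cells in RPMI1640 with 10% FBS exposed to graded compound concentrations for 5 days at 37 °C, 5% CO2. Viability read as CellTiter-Glo ATP luminescence after 30 min.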

Series [5] in a line: Caco-2 membrane permeability assay. Type of series: in vitro ADME. As to conditions: human. The protocol: Membrane Permeability Evaluation Experiments: Caco-2 Assays
The molecules of the present disclosure were evaluated for their membrane permeability. […] Data would be used for apparent permeability (Papp).
wherein VA is the volume of the receptor pore (unit: mL), Area is the surface area of the membrane (0.143 cm^2 for Transwell-96 well permeable scaffolds), and time is the total transport time (unit: seconds).

Where [6] appears, read: Caco-2, apical pH 6.5, basolateral pH 7.4.

For `CCc1c(N2CCN(C(=O)c3ncccc3O)CC2)c(=O)n2nc(-c3cccnc3)nc2n1CC(=O)Nc1ccc(C(F)(F)F)cc1C` [A1, reference compound], in series [1] (20 mg/kg), the inhibition of tumour growth (TGI) is 16%, the “Tumor Volume D 1” value came out at 162 mm^3 and the “Tumor volume D 21” value amounted to 1672 mm^3. In addition, in series [1] (50 mg/kg), the TGI is given as 50%, the “Tumor Volume D 1” value was 160 mm^3 and the “Tumor volume D 21” value is given as 1065 mm^3. This compound gave a F in series [2] of 14%. For the same compound, in series [3] (iv, 2 mg/kg), the AUC(0-t) is 1190 ng·h/mL, the C0 amounted to 2520 ng/mL, the clearance came out at 28.1 mL/min/kg and the half-life was 1.3 h. Besides, in series [3] (po, 10 mg/kg), the area under the curve AUC(0-t) was found to be 801 ng·h/mL, the highest level (Cmax) was 584 ng/mL, the Tmax came out at 0.5 h and the half-life is 1.4 h.

`CCc1c(N2CCN(C(=O)c3ncnc(C)c3O)CC2)c(=O)n2nc(-c3cc4c(s3)COC4)nc2n1CC(=O)Nc1ccc(C(F)(F)F)c(C)c1C` [P62] registered an IC50 in series [4] of 37 nM. In addition, the efflux ratio in series [5] (Caco-2) stood at 11.6. In series [5] (setting [6]), this compound yielded a Papp A→B of 1.54 ×10⁻⁶ cm/s and a Papp B→A of 17.9 ×10⁻⁶ cm/s.
